Assay results as given in ChEMBL document CHEMBL1201862, “PubChem BioAssay data set” (2004).
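Five concentrations, 48 hours, 96-well plates. Abbreviation: GI50, concentration required for 50% inhibition of growth.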 Calls of active or inactive are those of the source. Cut-off read from the data, not from the text of the source: active = GI50 up to about 1.1 µM and inactive = higher.

Experiments:
Test in all cases: NCI tumour cell line growth inhibition, 48 h
[1] = test system: 786-0
[2] = test system: A498
[3] = test system: A549
[4] = test system: ACHN
[5] = test system: BT-549
[6] = test system: CAKI-1
[7] = test system: CCRF-CEM
[8] = test system: COLO 205
[9] = test system: DLD-1
[10] = test system: DMS-114
[11] = test system: DMS-273
[12] = test system: DU-145
[13] = test system: EKVX
[14] = test system: HCC 2998
[15] = test system: HCT-116
[16] = test system: HCT-15
[17] = test system: HL-60
[18] = test system: HOP-18
[19] = test system: HOP-62
[20] = test system: HOP-92
[21] = test system: HT-29
[22] = test system: Hs-578T
[23] = test system: IGROV-1
[24] = test system: K562
[25] = test system: KM-20L2
[26] = test system: KM12
[27] = test system: LOX IMVI
[28] = test system: LXFL 529
[29] = test system: M14
[30] = test system: MCF7
[31] = test system: MDA-MB-231
[32] = test system: MDA-MB-435
[33] = test system: MDA-N
[34] = test system: MOLT-4
[35] = test system: Malme-3M
[36] = test system: NCI-H226
[37] = test system: NCI-H23
[38] = test system: NCI-H460
[39] = test system: NCI-H522
[40] = test system: NCI/ADR-RES
[41] = test system: OVCAR-3
[42] = test system: OVCAR-4
[43] = test system: OVCAR-5
[44] = test system: OVCAR-8
[45] = test system: PC-3
[46] = test system: RPMI-8226
[47] = test system: RXF 393
[48] = test system: SF-268
[49] = test system: SF-295
[50] = test system: SF-539
[51] = test system: SK-MEL-28
[52] = test system: SK-MEL-2
[53] = test system: SK-MEL-5
[54] = test system: SK-OV-3
[55] = test system: SN12C
[56] = test system: SNB-19
[57] = test system: SNB-75
[58] = test system: SNB-78
[59] = test system: SR
[60] = test system: SW-620
[61] = test system: T47D
[62] = test system: TK-10
[63] = test system: U-251
[64] = test system: UACC-257
[65] = test system: UACC-62
[66] = test system: UO-31
[67] = test system: XF498
[68] = test system: M19-MEL

**Q.** How did the GI50 [1] turn out when `COc1cc(-c2ccc(Nc3ccccc3C(=O)O)c(OC)c2)ccc1Nc1ccccc1C(=O)O` was run?
**A.** 4.52 µM (inactive)

**Q.** And the GI50 [2]?
**A.** > 47.2 µM (inactive)

**Q.** What about the GI50 [3] of the same compound?
**A.** 4.22 µM (inactive)

**Q.** What about the GI50 [4] of the same compound?
**A.** 8.69 µM (inactive)

**Q.** And the GI50 [5]?
**A.** 15.8 µM (inactive)

**Q.** And the GI50 [6]?
**A.** 8.69 µM (inactive)

**Q.** And the GI50 [7]?
**A.** 2.38 µM (inactive)

**Q.** And the GI50 [8]?
**A.** 48.3 µM (inactive)

**Q.** And the GI50 [9]?
**A.** > 28 µM (inactive)

**Q.** And the GI50 [10]?
**A.** 25.4 µM (inactive)

**Q.** What about the GI50 [11] of the same compound?
**A.** 1.81 µM (inactive)

**Q.** What about the GI50 [12] of the same compound?
**A.** 8.65 µM (inactive)

**Q.** And the GI50 [13]?
**A.** 58.7 µM (inactive)

**Q.** What about the GI50 [14] of the same compound?
**A.** 21.7 µM (inactive)

**Q.** What about the GI50 [15] of the same compound?
**A.** 0.792 µM (active)

**Q.** And the GI50 [16]?
**A.** 0.619 µM

**Q.** What about the GI50 [17] of the same compound?
**A.** 1.91 µM (inactive)

**Q.** What about the GI50 [18] of the same compound?
**A.** > 100 µM (inactive)

**Q.** And the GI50 [19]?
**A.** 8.57 µM (inactive)

**Q.** And the GI50 [20]?
**A.** 41 µM (inactive)

**Q.** What about the GI50 [21] of the same compound?
**A.** 31 µM (inactive)

**Q.** What about the GI50 [22] of the same compound?
**A.** 11.3 µM (inactive)

**Q.** And the GI50 [23]?
**A.** 21 µM (inactive)

**Q.** And the GI50 [24]?
**A.** 1.35 µM (inactive)

**Q.** What about the GI50 [25] of the same compound?
**A.** > 56 µM (inactive)

**Q.** What about the GI50 [26] of the same compound?
**A.** 7.53 µM (inactive)

**Q.** What about the GI50 [27] of the same compound?
**A.** 1.28 µM (inactive)

**Q.** And the GI50 [28]?
**A.** 1.68 µM (inactive)

**Q.** What about the GI50 [29] of the same compound?
**A.** 26.5 µM (inactive)

**Q.** What about the GI50 [30] of the same compound?
**A.** 5.08 µM (inactive)

**Q.** What about the GI50 [31] of the same compound?
**A.** 13.7 µM (inactive)

**Q.** And the GI50 [32]?
**A.** 8.59 µM (inactive)

**Q.** And the GI50 [33]?
**A.** 10 µM (inactive)

**Q.** And the GI50 [34]?
**A.** 1.13 µM (inactive)

**Q.** And the GI50 [35]?
**A.** 39.6 µM (inactive)

**Q.** What about the GI50 [36] of the same compound?
**A.** 22.6 µM (inactive)

**Q.** What about the GI50 [37] of the same compound?
**A.** 18.3 µM (inactive)

**Q.** And the GI50 [38]?
**A.** 1.94 µM (inactive)

**Q.** And the GI50 [39]?
**A.** 8.87 µM (inactive)

**Q.** What about the GI50 [40] of the same compound?
**A.** > 46.2 µM (inactive)

**Q.** What about the GI50 [41] of the same compound?
**A.** 20.6 µM (inactive)

**Q.** And the GI50 [42]?
**A.** 28.2 µM (inactive)

**Q.** What about the GI50 [43] of the same compound?
**A.** > 37.5 µM (inactive)

**Q.** And the GI50 [44]?
**A.** 8.95 µM (inactive)

**Q.** What about the GI50 [45] of the same compound?
**A.** 2 µM (inactive)

**Q.** And the GI50 [46]?
**A.** 2.33 µM (inactive)

**Q.** What about the GI50 [47] of the same compound?
**A.** 21.2 µM (inactive)

**Q.** And the GI50 [48]?
**A.** 11.4 µM (inactive)

**Q.** And the GI50 [49]?
**A.** 11.9 µM (inactive)

**Q.** What about the GI50 [50] of the same compound?
**A.** 5.45 µM (inactive)

**Q.** What about the GI50 [51] of the same compound?
**A.** 33.8 µM (inactive)

**Q.** What about the GI50 [52] of the same compound?
**A.** 19.3 µM (inactive)

**Q.** And the GI50 [53]?
**A.** 16.6 µM (inactive)

**Q.** And the GI50 [54]?
**A.** 23.4 µM (inactive)

**Q.** And the GI50 [55]?
**A.** 9.91 µM (inactive)

**Q.** And the GI50 [56]?
**A.** 10.2 µM (inactive)

**Q.** What about the GI50 [57] of the same compound?
**A.** 30.2 µM (inactive)

**Q.** What about the GI50 [58] of the same compound?
**A.** 32 µM (inactive)

**Q.** What about the GI50 [59] of the same compound?
**A.** 0.557 µM (active)

**Q.** What about the GI50 [60] of the same compound?
**A.** 7.38 µM (inactive)

**Q.** What about the GI50 [61] of the same compound?
**A.** 11.2 µM (inactive)

**Q.** What about the GI50 [62] of the same compound?
**A.** 36.6 µM (inactive)

**Q.** And the GI50 [63]?
**A.** 3.3 µM (inactive)

**Q.** And the GI50 [64]?
**A.** 20.5 µM (inactive)

**Q.** And the GI50 [65]?
**A.** 1.46 µM (inactive)

**Q.** And the GI50 [66]?
**A.** 13.6 µM (inactive)

**Q.** What about the GI50 [67] of the same compound?
**A.** > 40.1 µM (inactive)

**Q.** For `CN(C)/N=N/c1ccc(S(N)(=O)=O)cc1`, which GI50 [1] is on record?
**A.** > 100 µM (inactive)

**Q.** And the GI50 [2]?
**A.** > 100 µM (inactive)

**Q.** And the GI50 [3]?
**A.** > 100 µM (inactive)

**Q.** What about the GI50 [4] of the same compound?
**A.** > 100 µM (inactive)

**Q.** What about the GI50 [6] of the same compound?
**A.** > 100 µM (inactive)

**Q.** What about the GI50 [7] of the same compound?
**A.** 6.43 µM (inactive)

**Q.** And the GI50 [8]?
**A.** > 100 µM (inactive)

**Q.** And the GI50 [9]?
**A.** > 100 µM (inactive)

**Q.** And the GI50 [10]?
**A.** > 100 µM (inactive)

**Q.** And the GI50 [11]?
**A.** > 100 µM (inactive)

**Q.** And the GI50 [13]?
**A.** > 100 µM (inactive)

**Q.** And the GI50 [14]?
**A.** > 100 µM (inactive)

**Q.** What about the GI50 [15] of the same compound?
**A.** > 100 µM (inactive)

**Q.** What about the GI50 [16] of the same compound?
**A.** > 100 µM

**Q.** What about the GI50 [18] of the same compound?
**A.** > 100 µM (inactive)

**Q.** What about the GI50 [19] of the same compound?
**A.** > 100 µM (inactive)

**Q.** And the GI50 [20]?
**A.** > 100 µM (inactive)

**Q.** What about the GI50 [21] of the same compound?
**A.** > 100 µM (inactive)

**Q.** And the GI50 [23]?
**A.** > 100 µM (inactive)

**Q.** What about the GI50 [24] of the same compound?
**A.** > 100 µM (inactive)

**Q.** What about the GI50 [25] of the same compound?
**A.** > 100 µM (inactive)

**Q.** And the GI50 [26]?
**A.** > 100 µM (inactive)

**Q.** What about the GI50 [27] of the same compound?
**A.** > 100 µM (inactive)

**Q.** What about the GI50 [29] of the same compound?
**A.** > 100 µM (inactive)

**Q.** What about the GI50 [68] of the same compound?
**A.** > 100 µM (inactive)

**Q.** What about the GI50 [34] of the same compound?
**A.** > 100 µM (inactive)

**Q.** And the GI50 [35]?
**A.** > 100 µM (inactive)

**Q.** And the GI50 [36]?
**A.** > 100 µM (inactive)

**Q.** What about the GI50 [37] of the same compound?
**A.** > 100 µM (inactive)

**Q.** And the GI50 [38]?
**A.** > 100 µM (inactive)

**Q.** What about the GI50 [39] of the same compound?
**A.** > 100 µM (inactive)

**Q.** What about the GI50 [41] of the same compound?
**A.** > 100 µM (inactive)

**Q.** And the GI50 [42]?
**A.** > 100 µM (inactive)

**Q.** What about the GI50 [43] of the same compound?
**A.** > 100 µM (inactive)

**Q.** What about the GI50 [44] of the same compound?
**A.** > 100 µM (inactive)

**Q.** What about the GI50 [46] of the same compound?
**A.** > 100 µM (inactive)

**Q.** And the GI50 [48]?
**A.** > 100 µM (inactive)

**Q.** And the GI50 [49]?
**A.** > 100 µM (inactive)

**Q.** What about the GI50 [50] of the same compound?
**A.** > 100 µM (inactive)

**Q.** And the GI50 [51]?
**A.** > 100 µM (inactive)

**Q.** And the GI50 [52]?
**A.** > 100 µM (inactive)

**Q.** And the GI50 [53]?
**A.** > 100 µM (inactive)

**Q.** And the GI50 [54]?
**A.** > 100 µM (inactive)

**Q.** And the GI50 [55]?
**A.** > 100 µM (inactive)

**Q.** What about the GI50 [56] of the same compound?
**A.** > 100 µM (inactive)

**Q.** And the GI50 [57]?
**A.** 92.9 µM (inactive)

**Q.** What about the GI50 [59] of the same compound?
**A.** > 100 µM (inactive)

**Q.** What about the GI50 [60] of the same compound?
**A.** > 100 µM (inactive)

**Q.** What about the GI50 [62] of the same compound?
**A.** > 100 µM (inactive)

**Q.** What about the GI50 [63] of the same compound?
**A.** > 100 µM (inactive)

**Q.** And the GI50 [64]?
**A.** > 100 µM (inactive)

**Q.** And the GI50 [65]?
**A.** > 100 µM (inactive)

**Q.** And the GI50 [66]?
**A.** > 100 µM (inactive)

**Q.** What about the GI50 [67] of the same compound?
**A.** > 100 µM (inactive)
